The source of these data is ChEMBL document CHEMBL3763049, “Discovery of aminoquinazoline derivatives as human A(2A) adenosine receptor antagonists” (Bioorg Med Chem Lett, 2016).

A word on the Ki: it is the dissociation constant of the complex between target and ligand, obtained from inhibition or displacement. As usually defined, the inhibition in vivo is the share of the control response that was lost under treatment. Usually AUC stands for concentration integrated over time. Low values mean less exposure, high ones more exposure. One may read the solubility as the dissolved amount per volume that the medium holds. Low readings indicate a poorly soluble substance, high ones a readily soluble substance.

Series [1] concerns the target Adenosine receptor A2a (Homo sapiens, UniProt P29274). The series is described as follows: Displacement of [3H]SCH-58261 from human adenosine A2A receptor expressed in HEK cell membranes after 60 mins by microplate scintillation counting analysis. Further details: species or system HEK293; call rule not given here. Background: In a radioligand displacement assay an active substance lowers the binding of a labelled ligand.

The next series deals with T1, Adenosine receptor A1 (Homo sapiens, UniProt P30542).
T1 sequence (P30542 whole entry): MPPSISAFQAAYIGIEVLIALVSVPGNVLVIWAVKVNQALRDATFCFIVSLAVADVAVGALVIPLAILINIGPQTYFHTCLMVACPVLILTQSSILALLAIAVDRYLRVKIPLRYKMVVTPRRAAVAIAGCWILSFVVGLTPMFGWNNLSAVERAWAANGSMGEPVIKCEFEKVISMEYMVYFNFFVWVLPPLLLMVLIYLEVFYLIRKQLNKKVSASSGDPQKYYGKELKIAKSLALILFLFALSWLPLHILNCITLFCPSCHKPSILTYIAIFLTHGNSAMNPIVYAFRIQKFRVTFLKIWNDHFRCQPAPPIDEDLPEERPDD
The series can be described thus: Displacement of [3H]DPCPX from human adenosine A1 receptor expressed in CHO cell membranes after 60 mins by microplate scintillation counting analysis.

Series [2] concerns the target Adenosine receptor A2a (Rattus norvegicus, UniProt P30543). The series can be described thus: Binding affinity to rat A2A adenosine receptor.
The test system of series [3] is Rattus norvegicus. The series can be described thus: Anti-cataleptic activity in Sprague-Dawley rat assessed as inhibition of haloperidol-induced catalepsy at 30 mg/kg, po administered for 1 hr. Type of series: functional.
The subject of series [4] is Rattus norvegicus. The series can be described thus: Anti-cataleptic activity in Sprague-Dawley rat assessed as inhibition of haloperidol-induced catalepsy at 10 mg/kg, po administered for 1 hr. The class given is functional.
A short description of series [5]: AUC in haloperidol-induced Sprague-Dawley rat cataleptic model at 10 mg/kg, po administered for 1 hr. Type of series: ADME, organism-based. As to conditions: in vivo.
Series [6] is described as follows: AUC in haloperidol-induced Sprague-Dawley rat cataleptic model at 30 mg/kg, po administered for 1 hr. The class given is ADME, organism-based. The settings on record: in vivo.
Series [7] can be described thus: Solubility of compound at pH 7. Type of series: physicochemical. As to conditions: buffer.

≈ marks a conversion by molar mass, not a printed value.

Adenosine receptor A2a (Homo sapiens, UniProt P29274), sequence (P29274 whole entry): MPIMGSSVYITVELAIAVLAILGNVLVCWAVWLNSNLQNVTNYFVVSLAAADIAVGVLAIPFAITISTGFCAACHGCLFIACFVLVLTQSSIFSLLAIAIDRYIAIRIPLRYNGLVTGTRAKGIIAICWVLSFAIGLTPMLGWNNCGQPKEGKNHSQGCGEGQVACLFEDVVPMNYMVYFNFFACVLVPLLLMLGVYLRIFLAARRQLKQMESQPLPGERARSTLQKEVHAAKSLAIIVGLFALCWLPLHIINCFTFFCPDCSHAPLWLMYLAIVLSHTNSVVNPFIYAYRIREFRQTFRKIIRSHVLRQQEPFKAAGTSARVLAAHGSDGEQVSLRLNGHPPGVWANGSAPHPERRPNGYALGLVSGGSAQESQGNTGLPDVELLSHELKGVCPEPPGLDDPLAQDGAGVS
Adenosine receptor A2a (Rattus norvegicus, UniProt P30543), sequence (P30543 whole entry): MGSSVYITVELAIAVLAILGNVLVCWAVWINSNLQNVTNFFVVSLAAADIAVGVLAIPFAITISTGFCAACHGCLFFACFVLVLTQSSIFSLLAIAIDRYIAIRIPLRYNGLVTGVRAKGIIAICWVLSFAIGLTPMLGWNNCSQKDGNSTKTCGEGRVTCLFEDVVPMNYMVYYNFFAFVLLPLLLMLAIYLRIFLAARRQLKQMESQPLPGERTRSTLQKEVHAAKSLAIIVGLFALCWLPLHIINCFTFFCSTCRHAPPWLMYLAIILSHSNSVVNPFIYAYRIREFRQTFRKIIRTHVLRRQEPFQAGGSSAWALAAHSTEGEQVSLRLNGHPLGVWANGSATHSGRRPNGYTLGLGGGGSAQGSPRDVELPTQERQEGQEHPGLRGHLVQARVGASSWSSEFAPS

With `Nc1nc(C(=O)NCc2cccc3cc(C(=O)N4CCCc5ccccc54)cnc23)c2cccc(F)c2n1`, the Ki at Adenosine receptor A2a [1] was determined as 4.4 nM; at Adenosine receptor A1, 160 nM.

As for `Nc1nc(C(=O)NCc2cccc3cccnc23)c2cccc(Cl)c2n1`, the results for the Ki on Adenosine receptor A1 and at Adenosine receptor A2a [2] (read-out: Ki) were 213 nM and 2.9 nM, respectively. Further, the inhibition in vivo at 30 mg/kg in the series on Rattus norvegicus [3] amounted to 35%.

For the compound `Cn1nccc1-c1cccc2c(C(=O)NCc3cccc4cccnc34)nc(N)nc12`, the results for the Ki at Adenosine receptor A2a [1] and on Adenosine receptor A1 were 1040 nM and 6040 nM, respectively.

As for `Nc1nc(C(=O)NCc2cccc3cccnc23)c2ccc(F)cc2n1`, the Ki worked out at 0.3 nM at Adenosine receptor A2a [1], 31 nM at Adenosine receptor A1 and 4.8 nM at Adenosine receptor A2a [2] (read-out: Ki). Further, the inhibition in vivo at 10 mg/kg with Rattus norvegicus [4] worked out at 39%. Besides, the AUC at 1 h in series [5] came out at 2.3 µM·h.

At Adenosine receptor A1, `Nc1nc(C(=O)NCc2cccc3cccnc23)c2cccc(Br)c2n1` had a Ki of 10 nM.

With `N#Cc1cccc2c(C(=O)NCc3cccc4cccnc34)nc(N)nc12`, the Ki on Adenosine receptor A2a [1] is 24 nM; on Adenosine receptor A1 it was 337 nM.

On to `Nc1nc(C(=O)NCc2cccc3cc[nH]c23)c2cccc(F)c2n1`, for which the Ki on Adenosine receptor A2a [1] worked out at 8.2 nM; on Adenosine receptor A1 it was 54 nM.

In the case of `Nc1nc(C(=O)NCc2ccccc2)c2cccc(F)c2n1`, the Ki worked out at 5.4 nM on Adenosine receptor A2a [1] and 83 nM on Adenosine receptor A1.

Regarding `Nc1nc(C(=O)NCC2CCCCC2)c2cccc(F)c2n1`, the inhibitory constant (Ki) on Adenosine receptor A2a [1] is 45 nM; at Adenosine receptor A1, 170 nM.

`Nc1nc(C(=O)NCc2cccc3cccnc23)c2cccc(C(F)(F)F)c2n1`: the Ki on Adenosine receptor A1 amounted to 1300 nM; on Adenosine receptor A2a [2] (read-out: Ki), 57 nM. Also, in the series on Rattus norvegicus [3], the inhibition in vivo at 30 mg/kg is 0%.

Consider `CSc1cccc2c(C(=O)NCc3cccc4cccnc34)nc(N)nc12`, for which the Ki is 132 nM at Adenosine receptor A1 and 12 nM on Adenosine receptor A2a [2] (read-out: Ki). Also, in the series with Rattus norvegicus [3], the inhibition in vivo at 30 mg/kg worked out at 0%. Besides, the AUC at 1 h in series [6] is 8.9 µM·h.

Consider `Nc1nc(C(=O)NCc2cccc3cc(C(=O)N4CCN(c5ccccn5)CC4)cnc23)c2cccc(F)c2n1`, for which the Ki on Adenosine receptor A2a [1] amounted to 2.7 nM; at Adenosine receptor A1, 110 nM; at Adenosine receptor A2a [2] (read-out: Ki), 12.5 nM.

As to `COCCOc1ccc(N2CCN(C(=O)c3cnc4c(CNC(=O)c5nc(N)nc6c(F)cccc56)cccc4c3)CC2)cc1`, the Ki on Adenosine receptor A2a [1] came out at 4.8 nM; on Adenosine receptor A1, 120 nM; at Adenosine receptor A2a [2] (read-out: Ki), 11.4 nM.

For the compound `Nc1nc(C(=O)NCCc2ccccc2)c2cccc(F)c2n1`, the Ki at Adenosine receptor A2a [1] came to 160 nM; at Adenosine receptor A1, 559 nM.

For the compound `Nc1nc(C(=O)NCc2cccc3c2NCCC3)c2cccc(F)c2n1`, the Ki at Adenosine receptor A2a [1] was 7.6 nM; at Adenosine receptor A1, 213 nM.

With `Nc1cc(C(=O)NCc2cccc3cccnc23)c2ccccc2n1`, the Ki at Adenosine receptor A2a [1] amounted to 836 nM; at Adenosine receptor A1, 17600 nM. This compound yielded a solubility in series [7] of 19 µM (≈ 6.24 µg/mL).

Turning to `Nc1nc(C(=O)NCc2cccc3c2C(=O)NC3)c2cccc(F)c2n1`, the Ki is 1.8 nM on Adenosine receptor A2a [1] and 5.4 nM at Adenosine receptor A1.

As to `Nc1nc(C(=O)NCc2cncc3ccccc23)c2cccc(F)c2n1`, the Ki at Adenosine receptor A2a [1] was determined as 26.7 nM; at Adenosine receptor A1, 78 nM.

For `C[C@@H](NC(=O)c1nc(N)nc2c(F)cccc12)c1cccc2cccnc12`, affinity at Adenosine receptor A1 was put at a Ki of 57 nM.

Regarding `Nc1nc(C(=O)NCc2cccc3ccccc23)c2cccc(F)c2n1`, the values for the Ki at Adenosine receptor A2a [1] and on Adenosine receptor A1 were 10.1 nM and 90 nM, respectively.

As for `Nc1nc(C(=O)NCc2ccnc3ccccc23)c2cccc(F)c2n1`, the Ki at Adenosine receptor A2a [1] stood at 927 nM; on Adenosine receptor A1, 10000 nM.

As to `Nc1nc(C(=O)NCc2cccc3cccnc23)c2cccc(I)c2n1`, the figures for the Ki at Adenosine receptor A2a [1] and on Adenosine receptor A1 were 3.1 nM and 33 nM, respectively. Further, the inhibition in vivo at 10 mg/kg with Rattus norvegicus [4] was 23%. In series [5], the AUC at 1 h worked out at 1.3 µM·h.

In the case of `Nc1nc(C(=O)NCc2cccc3c(C(=O)N4CCN(c5ccccc5)CC4)ccnc23)c2cccc(F)c2n1`, the Ki on Adenosine receptor A2a [1] came out at 1540 nM; on Adenosine receptor A1 it was 6000 nM.

Turning to `Nc1nc(C(=O)NCc2cccc3cccnc23)c2cccc(-c3cncnc3)c2n1`, the values for the inhibition constant (Ki) at Adenosine receptor A2a [1] and on Adenosine receptor A1 were 160 nM and 6300 nM, respectively.

For `Nc1nc(C(=O)NCc2ccc3ccccc3n2)c2cccc(F)c2n1`, the results for the Ki at Adenosine receptor A2a [1] and at Adenosine receptor A1 were 15 nM and 78 nM, respectively.

In the case of `C[C@H](NC(=O)c1nc(N)nc2c(F)cccc12)c1cccc2cccnc12`, the Ki at Adenosine receptor A2a [1] turned out to be 126 nM; at Adenosine receptor A1, 524 nM.

In the case of `Nc1nc(C(=O)NCc2cccc3cccnc23)c2cc(F)ccc2n1`, the Ki on Adenosine receptor A2a [1] was 4.4 nM; on Adenosine receptor A1 it was 346 nM; at Adenosine receptor A2a [2] (read-out: Ki) it was 8.7 nM. For the same compound, in the series with Rattus norvegicus [4], the inhibition in vivo at 10 mg/kg amounted to 55%. The compound further registered an AUC at 1 h in series [5] of 0.8 µM·h.

`Nc1nc(C(=O)NCc2cccc3cccnc23)c2cccc(OC(F)(F)F)c2n1`: the Ki stood at 20 nM on Adenosine receptor A1 and 2.9 nM on Adenosine receptor A2a [2] (read-out: Ki). In the series on Rattus norvegicus [3], the inhibition in vivo at 30 mg/kg was determined as 0%.

For `CCOc1ccnc2c(CNC(=O)c3nc(N)nc4c(F)cccc34)cccc12`, the Ki at Adenosine receptor A2a [1] was 73.2 nM; at Adenosine receptor A1, 252 nM.

As to `Cc1cccc(CNC(=O)c2nc(N)nc3c(F)cccc23)c1`, the figures for the Ki at Adenosine receptor A2a [1] and on Adenosine receptor A1 were 8.4 nM and 112 nM, respectively.

Turning to `Nc1nc(C(=O)NCCc2ccccn2)c2cccc(F)c2n1`, the results for the Ki on Adenosine receptor A2a [1] and on Adenosine receptor A1 were 14 nM and 600 nM, respectively.

Consider `COc1ccnc2c(CNC(=O)c3nc(N)nc4c(F)cccc34)cccc12`, for which the figures for the Ki on Adenosine receptor A2a [1], on Adenosine receptor A1 and at Adenosine receptor A2a [2] (read-out: Ki) were 15.2 nM, 69 nM and 1.3 nM, respectively.

Turning to `Nc1nc(C(=O)NCc2cccc3cc(C(=O)NCCCCCc4ccccc4)cnc23)c2cccc(F)c2n1`, the figures for the Ki at Adenosine receptor A2a [1] and on Adenosine receptor A1 were 6.9 nM and 160 nM, respectively.

On to `Cc1ccccc1CNC(=O)c1nc(N)nc2c(F)cccc12`, for which the values for the Ki on Adenosine receptor A2a [1] and on Adenosine receptor A1 were 13.6 nM and 116 nM, respectively.

Take `Nc1nc(C(=O)NCc2cccc3[nH]cnc23)c2cccc(F)c2n1`: the Ki worked out at 25 nM at Adenosine receptor A2a [1] and 281 nM at Adenosine receptor A1.

Take `Nc1nc(C(=O)NCc2cccc3c2OCCO3)c2cccc(F)c2n1`: the Ki stood at 20 nM on Adenosine receptor A2a [1] and 103 nM on Adenosine receptor A1.

For `Nc1nc(C(=O)NCc2cccc3cccnc23)c2cc(Cl)cc(Cl)c2n1`, the Ki at Adenosine receptor A2a [1] was determined as 6.6 nM; at Adenosine receptor A1 it was 50 nM.

Take `Nc1nc(C(=O)NCc2nccc3ccccc23)c2cccc(F)c2n1`: the Ki came out at 6.7 nM on Adenosine receptor A2a [1] and 84 nM on Adenosine receptor A1.

Take `COc1cccc2c(C(=O)NCc3cccc4cccnc34)nc(N)nc12`: the Ki at Adenosine receptor A1 is 6 nM; on Adenosine receptor A2a [2] (read-out: Ki) it was 0.6 nM. Besides, the inhibition in vivo at 30 mg/kg in the series on Rattus norvegicus [3] was determined as 31%. In series [6], this compound displayed an AUC at 1 h of 0.8 µM·h.

With `CN(CCCc1ccccn1)C(=O)c1cnc2c(CNC(=O)c3nc(N)nc4c(F)cccc34)cccc2c1`, the Ki on Adenosine receptor A2a [1] is 12 nM; on Adenosine receptor A1, 210 nM.

With `Nc1nc(C(=O)NCc2cccc3c2OCCN3)c2cccc(F)c2n1`, the figures for the Ki at Adenosine receptor A2a [1] and on Adenosine receptor A1 were 21.5 nM and 135 nM, respectively.

For `Nc1nc(C(=O)NCc2cccc3cccnc23)c2cc(F)c(F)cc2n1`, the Ki at Adenosine receptor A2a [1] is 3.6 nM; at Adenosine receptor A1, 40 nM.

For `CCCCOc1ccnc2c(CNC(=O)c3nc(N)nc4c(F)cccc34)cccc12`, the Ki at Adenosine receptor A2a [1] is 245 nM; at Adenosine receptor A1, 748 nM; on Adenosine receptor A2a [2], “Not Active”.

In the case of `CCn1cnc2c(CNC(=O)c3nc(N)nc4c(F)cccc34)cccc21`, the Ki on Adenosine receptor A2a [1] was determined as 3.1 nM; on Adenosine receptor A1, 24 nM.

For the compound `CS(=O)(=O)c1cccc2c(C(=O)NCc3cccc4cccnc34)nc(N)nc12`, the figures for the Ki on Adenosine receptor A1 and on Adenosine receptor A2a [2] (read-out: Ki) were 4740 nM and 302 nM, respectively.
